The results in this text go back to US20100215638A1, “METHOD FOR TREATMENT OF PROSTATE CANCER AND SCREENING OF PATIENTS BENEFITING FROM SAID METHOD” (VALTION TEKNILLINEN TUTKIMUSKESKUS, priority 2006, published 2010).

What all share (assay type): cell-based, human
Data set [1] deals with ERG-positive prostate cancer cell line VCaP. The data set is described as follows: Bead-array gene expression with GSEA of MSigDB pathways. The method, then: Gene expression analysis by bead-arrays. Early passage VCaP and LNCaP cells were grown to approximately 70% confluence before treatments with 300 nM trichostatin A (Sigma) or 500 nM MS-275 (Sigma) for 6 and 12 hours. For androgen ablation, the cells were plated in androgen-deprived medium. 300 nM trichostatin A (Sigma) or 500 nM MS-275 (Sigma) were added for 6 hours and 12 hours before harvesting. Hormone-replacement treatment was performed by supplementing the full RPMI 1640 medium with 10% charcoal-stripped serum. Total RNA was extracted according to the manufacturer's protocol using Trizol reagent (Invitrogen, Carlsbad, Calif.). Integrity of the RNA prior to hybridization was monitored using a Bioanalyzer 2100 (Agilent, Santa Clara, Calif.) (according to manufacturer's instruction). […] The arrays were scanned with the BeadArray Reader (Illumina).
Statistical analysis. The raw data was quantile-normalized and analyzed by using the R/Bioconductor software (http://www.r-project.org/, http://www.bioconductor.org/). Mean for ERG signature genes for at least two replicates per condition was calculated and the treatment values were extracted from controls to illustrate the fold changes presented on Table 5. […]

A further data set has as its system ERG gene signature. The data set is described as follows: Bead-array gene expression with GSEA of ERG gene signature reversal. To be noted: 12 h treatment, 300 nM TSA or 500 nM MS-275. As for the experimental part:
Gene expression analysis by bead-arrays. Early passage VCaP and LNCaP cells were grown to approximately 70% confluence before treatments with 300 nM trichostatin A (Sigma) or 500 nM MS-275 (Sigma) for 6 and 12 hours. For androgen ablation, the cells were plated in androgen-deprived medium. 300 nM trichostatin A (Sigma) or 500 nM MS-275 (Sigma) were added for 6 hours and 12 hours before harvesting. Hormone-replacement treatment was performed by supplementing the full RPMI 1640 medium with 10% charcoal-stripped serum. Total RNA was extracted according to the manufacturer's protocol using Trizol reagent (Invitrogen, Carlsbad, Calif.). Integrity of the RNA prior to hybridization was monitored using a Bioanalyzer 2100 (Agilent, Santa Clara, Calif.) (according to manufacturer's instruction). 500 ng of purified total RNA was amplified with the TotalPrep Kit (Ambion, Austin, Tex.) and the biotin labelled cRNA was hybridized to Sentrix HumanRef-8 Expression BeadChips (Illumina, San Diego, Calif.). The arrays were scanned with the BeadArray Reader (Illumina).
Statistical analysis. The raw data was quantile-normalized and analyzed by using the R/Bioconductor software (http://www.r-project.org/, http://www.bioconductor.org/). Mean for ERG signature genes for at least two replicates per condition was calculated and the treatment values were extracted from controls to illustrate the fold changes presented on Table 5. Gene set enrichment analysis (GSEA) was performed for the HDAC inhibitor treatment and androgen ablation data with the GSEA software v2.0.1 (http://www.broad.mit.edu/gsea/). Our own previously defined ERG gene signature was used to evaluate the statistical significance of the signature reversal by HDAC inhibitors and androgen ablation (Table 6.). MSigDB gene sets were used for studying the pathways affected by HDAC inhibitors TSA and MS-275 in ERG-positive prostate cancer cell line VCaP (FIGS. 12 and 13).

For data set [2], the system named is DuCaP prostate cancer cell. Kind of data set: Cell titer blue assay of cell number after TSA treatment. To be noted: 48 h incubation, 384-well plates 2000 cells/well. The method, then: (§1) FIG. 6. Analysis of the effect of Trichostatin A (TSA) treatment on VCaP and DuCaP prostate cancer cell number by using cell titer blue assay. Briefly, cells were plated in low concentration on 384-well plates (2000 cells/well) and let to attach overnight. Drug containing medium was added and CTB assay measurement with Envision Plate reader were done after 48 h incubation. […] For drawing the figure, cell culture medium only containing well intensities were extracted from actual measurements. Each data point is represented by the mean value of three independent measurements (mean+S.D.). Drug concentrations are presented on x-axis and relative cell number (control level set to 1) on y-axis. Statistical significance ([…]) of the differences between cell amounts in treated wells in comparison to untreated control wells is indicated with star using Student's t-test assuming that the data is unpaired and variance is unequal.
In general terms: The colour change of resazurin is a common sign of viable cells or microbes.

In data set [3] the test system is VCaP prostate cancer cell. Described as above. To be noted: 48 h incubation, 384-well plates 2000 cells/well. The method, then: as §1

Where two headings read alike, the source gives them in different places.

On to `Nc1ccccc1NC(=O)c1ccc(CNC(=O)OCc2cccnc2)cc1` [MS-275], for which, in data set [1], the “effect on pathways associated to ERG-positive prostate tumors” value was “reverses the pathways associated to ERG-positive prostate tumors”.

`CC(/C=C/C(=O)NO)=C\[C@@H](C)C(=O)c1ccc(N(C)C)cc1` [TSA, Trichostatin A]: the “effect on pathways associated to ERG-positive prostate tumors” value in data set [1] (VCaP, GSEA with MSigDB gene sets) is “reverses the pathways associated to ERG-positive prostate tumors”. Moreover, in the data set with ERG gene signature, the “ES (Enrichement score)” value is reported as −0.75. Moreover, in the data set on ERG gene signature, the “Gene set (number of genes showing core enrichment/total number of genes in the ERG gene set)” value was 29/47. Further, in the data set with ERG gene signature, the “NES (Normalized enrichment score)” value is reported as −1.63. Further, the “effect on cell number (relative cell number, cell titer blue assay)” value is listed as “clear dose dependent growth inhibition” in data set [2], “strong responses” in data set [2] (listed as Trichostatin A), “clear dose dependent growth inhibition” in data set [3] and “strong responses” in data set [3] (listed as Trichostatin A).
